These results are taken from publication PMC12631831, “Painting Peptides With Antimicrobial Potency Through Deep Reinforcement Learning” (Advanced Science, 2025).

The subject of one data set is rabbit erythrocytes. Particulars: ref DBAASP; cited from earlier work.
In the next data set the test system is B.subtilis ATCC6633. Here is the method: (§1) Four standard bacteria used for the MIC test were Escherichia coli ATCC25922, Pseudomonas aeruginosa ATCC9027, Staphylococcus aureus ATCC6538, and Bacillus subtilis ATCC6633. The testing procedures followed the Hancock methods.^[ [67] ^] The peptides were diluted in sterilized PBS to 512 µM as storage solutions. Then twofold gradient dilution was performed to make different concentrations (128, 64, 32, 16, 8, 4, 2, 1, 0.5, 0.25, and 0.125 µM) of AMPs. Each bacteria was incubated in LB broth at 37 °C until its absorbance at 625 nm reached 0.08–0.10, then diluted 10,000 times and added into a sterile 96‐well polypropylene plate (Grenier, #655201). A co‐incubation system included 100 µL peptide solution and 100 µL bacterial suspension.

A further data set relates to E.coli ATCC25922. Particulars: ATCC25922, 18 h. Here is the method:
as §1

For the next data set, the system named is P.aeruginosa ATCC9027. As to conditions: ATCC9027, 18 h. Here is the method: as §1
A further data set deals with S.aureus ATCC6538. Particulars: ATCC6538, 18 h. Here is the method: as §1
Another data set relates to human erythrocytes. Particulars: cited from earlier work.
The subject of a further data set is tumor cells. As to conditions: ref DRACP; cited from earlier work.

Like-named read-outs stand apart in the source and are kept apart here. Ends that are not written are not given here.

Turning to SMWSGMWRRKLKKLRNALKKKLKGE [Latarcin-1], the “Concentration for 20% hemolysis” value in the data set with rabbit erythrocytes was 80 µM.

For the sequence “GIKDWIKGAAKTLIKTVASHIANQ [Ascaphin-5, reference compound]”, in the data set on B.subtilis ATCC6633 (initial sequences of A01-A10, same conditions as A01-A10), the “MIC B.subtilis” value stood at 16 µM. The “MIC E.coli” value against E.coli ATCC25922 is 16 µM. For the same sequence, in the data set on P.aeruginosa ATCC9027, the “MIC P.aeruginosa” value was 128 µM. For the same sequence, the “MIC S.aureus” value with S.aureus ATCC6538 is listed as 4 µM. Besides, the HC50 in the data set with human erythrocytes (ref DRAMP) is reported as greater than 200 µM.

Regarding “GRKKRRQRRRGGWMWVTNLRTD [TAT-Ras-GAP317-326]”, in the data set with tumor cells, the Hemolysis and cytotoxicity result was “Enhances genotoxin-induced cytotoxicity in tumor cells”.

With “FFHHIFRAIVHVGKTIHRLVTG [Piscidin 1 [G8A], reference compound]”, the “MIC B.subtilis” value in the data set on B.subtilis ATCC6633 (ATCC6633, 18 h) is 4 µM. Further, the “MIC E.coli” value with E.coli ATCC25922 is 16 µM. Further, the “MIC P.aeruginosa” value with P.aeruginosa ATCC9027 is greater than 128 µM. Further, the “MIC S.aureus” value in the data set on S.aureus ATCC6538 is on record as 4 µM. In the data set with human erythrocytes (ref DBAASP), the HC50 was 4 µM.
